# According to PMC11882969 (Nature Communications, 2025):
# Where “and” joins values, the source holds several entries; their conditions need not be identical. Identical values can stand only once.
# Experiments:
# hCB1 = hCB1 (Homo sapiens, UniProt P21554); assay: bioSensAll ebBRET signaling profiling, hCB1; assay type: cell-based; set-up: host or cells: HEK293SL cells, transient PEI transfection; conditions: for Gi1 hCB1 response: Gi1 biosensor; for Gi1 hCB1 / GoB hCB1: single replicate values, FigS6a
# Chain of hCB1 (P21554 whole entry): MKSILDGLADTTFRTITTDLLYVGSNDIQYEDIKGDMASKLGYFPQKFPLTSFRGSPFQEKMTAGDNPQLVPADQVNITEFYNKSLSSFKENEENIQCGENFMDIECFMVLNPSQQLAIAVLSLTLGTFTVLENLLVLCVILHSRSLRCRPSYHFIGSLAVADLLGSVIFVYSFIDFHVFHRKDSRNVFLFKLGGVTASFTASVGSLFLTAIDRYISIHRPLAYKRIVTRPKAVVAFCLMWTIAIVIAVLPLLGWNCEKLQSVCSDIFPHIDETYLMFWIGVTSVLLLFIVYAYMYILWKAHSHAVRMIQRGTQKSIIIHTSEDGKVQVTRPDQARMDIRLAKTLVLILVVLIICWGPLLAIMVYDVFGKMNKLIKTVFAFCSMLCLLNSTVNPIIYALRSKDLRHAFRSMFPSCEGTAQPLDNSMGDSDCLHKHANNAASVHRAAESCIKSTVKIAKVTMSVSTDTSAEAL
# CB1 (rCB1) = CB1 (rCB1) (Rattus norvegicus, UniProt P20272); assay: Radioligand competition binding, [3H]-CP-55,940, rat brain membranes
# Chain of CB1 (rCB1) (P20272 whole entry): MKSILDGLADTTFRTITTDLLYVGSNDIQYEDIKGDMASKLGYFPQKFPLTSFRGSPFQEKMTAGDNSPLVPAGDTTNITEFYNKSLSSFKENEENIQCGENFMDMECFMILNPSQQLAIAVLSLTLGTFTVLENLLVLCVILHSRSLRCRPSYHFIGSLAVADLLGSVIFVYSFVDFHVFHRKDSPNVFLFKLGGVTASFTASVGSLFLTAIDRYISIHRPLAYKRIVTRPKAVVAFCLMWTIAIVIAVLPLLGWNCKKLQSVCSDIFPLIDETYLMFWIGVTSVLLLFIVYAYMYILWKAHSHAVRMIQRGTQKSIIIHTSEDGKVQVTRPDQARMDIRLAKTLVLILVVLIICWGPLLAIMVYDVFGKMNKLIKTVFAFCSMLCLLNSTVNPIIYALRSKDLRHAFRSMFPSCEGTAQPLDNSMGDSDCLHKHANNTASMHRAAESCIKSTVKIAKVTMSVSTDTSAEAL
smiles,measurement,setting,value
Cc1cc(C(=O)N(C)C(c2ccccc2)c2ccco2)nn1-c1cccc(C(F)(F)F)c1 (centres unmarked) [‘1082],Gi1 hCB1 response,hCB1; Log [Compound] (M) -4.22186,-35.0608
same,Gi1 hCB1 response,hCB1; Log [Compound] (M) -4.63927,-33.606
same,Gi1 hCB1 response,hCB1; Log [Compound] (M) -5.05788,18.2518
same,Gi1 hCB1 response,hCB1; Log [Compound] (M) -5.47381,-3.66
same,Gi1 hCB1 response,hCB1; Log [Compound] (M) -5.89285,5.159
same,Gi1 hCB1 response,hCB1; Log [Compound] (M) -6.31878,-15.9695
same,Gi1 hCB1 response,hCB1; Log [Compound] (M) -6.72585,12.7459
same,Gi1 hCB1 response,hCB1; Log [Compound] (M) -7.14267,12.0521
same,Gi1 hCB1 response,hCB1; Log [Compound] (M) -7.55284,14.8945
same,Gi1 hCB1 response,hCB1; Log [Compound] (M) -8,-25.6382
same,Gi1 hCB1 response,hCB1; Log [Compound] (M) -8.22186,0.1228
same,Gi1 hCB1 response,hCB1; Log [Compound] (M) -8.39794,-3.727
same,Gi1 hCB1 response,hCB1; Log [Compound] (M) -8.68787,-1.824
same,Gi1 hCB1 response,hCB1; Log [Compound] (M) -9.15521,3.279
same,Gi1 hCB1 response,hCB1; Log [Compound] (M) -9.61989,-3.167
same,Gi1 hCB1 response,hCB1; Log [Compound] (M) -10.0969,-2.16
same,Gi1 hCB1 response,hCB1; Log [Compound] (M) -10.5529,5.92
same,Gi1 hCB1 response,hCB1; Log [Compound] (M) -11.0177,-6.256
same,Gi1 hCB1 response,hCB1; Log [Compound] (M) -11.4949,-0.9291
same,Gi1 hCB1 response,hCB1; Log [Compound] (M) -11.9208,-13.4627
same,Gi1 hCB1 response,hCB1; Log [Compound] (M) -12.3979,-16.5961
same,Gi1 hCB1 response,hCB1; Log [Compound] (M) -12.8861,7.553
same,Gi1 hCB1 response,"hCB1; Log [Compound] (M) -13, individual replicate values",-19.5729 and -62.4781
same,Gi1 hCB1,hCB1; Log [Compound] (M) -4.22186,-9.361
same,GoB hCB1,hCB1; Log [Compound] (M) -4.22186,-31.4993
same,Gi1 hCB1,hCB1; Log [Compound] (M) -4.63927,-10.6872
same,GoB hCB1,hCB1; Log [Compound] (M) -4.63927,-34.2867
same,Gi1 hCB1,hCB1; Log [Compound] (M) -5.05788,-11.9051
same,GoB hCB1,hCB1; Log [Compound] (M) -5.05788,-28.1184
same,Gi1 hCB1,hCB1; Log [Compound] (M) -5.47381,-11.4426
same,GoB hCB1,hCB1; Log [Compound] (M) -5.47381,-23.1191
same,Gi1 hCB1,hCB1; Log [Compound] (M) -5.89285,-8.945
same,GoB hCB1,hCB1; Log [Compound] (M) -5.89285,-20.2417
same,Gi1 hCB1,hCB1; Log [Compound] (M) -6.31878,-6.247
same,GoB hCB1,hCB1; Log [Compound] (M) -6.31878,-13.1203
same,Gi1 hCB1,hCB1; Log [Compound] (M) -6.72585,-1.113
same,GoB hCB1,hCB1; Log [Compound] (M) -6.72585,-7.186
same,Gi1 hCB1,hCB1; Log [Compound] (M) -7.14267,-0.5276
same,GoB hCB1,hCB1; Log [Compound] (M) -7.14267,-1.323
same,Gi1 hCB1,hCB1; Log [Compound] (M) -7.55284,1.23
same,GoB hCB1,hCB1; Log [Compound] (M) -7.55284,0.2953
same,Gi1 hCB1,hCB1; Log [Compound] (M) -8,1.677
same,GoB hCB1,hCB1; Log [Compound] (M) -8,-4.362
same,Gi1 hCB1,hCB1; Log [Compound] (M) -8.22186,1.6461
same,GoB hCB1,hCB1; Log [Compound] (M) -8.22186,-2.654
same,Gi1 hCB1,hCB1; Log [Compound] (M) -8.39794,0.5515
same,GoB hCB1,hCB1; Log [Compound] (M) -8.39794,-2.906
same,Gi1 hCB1,hCB1; Log [Compound] (M) -8.68787,1.245
same,GoB hCB1,hCB1; Log [Compound] (M) -8.68787,-4.668
same,Gi1 hCB1,hCB1; Log [Compound] (M) -9.15521,1.045
same,GoB hCB1,hCB1; Log [Compound] (M) -9.15521,-5.747
same,Gi1 hCB1,hCB1; Log [Compound] (M) -9.61989,-0.04972
same,GoB hCB1,hCB1; Log [Compound] (M) -9.61989,-2.816
same,Gi1 hCB1,hCB1; Log [Compound] (M) -10.0969,2.864
same,GoB hCB1,hCB1; Log [Compound] (M) -10.0969,-1.485
same,Gi1 hCB1,hCB1; Log [Compound] (M) -10.5529,1.384
same,GoB hCB1,hCB1; Log [Compound] (M) -10.5529,-2.978
same,Gi1 hCB1,hCB1; Log [Compound] (M) -11.0177,-0.3581
same,GoB hCB1,hCB1; Log [Compound] (M) -11.0177,1.41
same,Gi1 hCB1,hCB1; Log [Compound] (M) -11.4949,1.415
same,GoB hCB1,hCB1; Log [Compound] (M) -11.4949,-0.7478
same,Gi1 hCB1,hCB1; Log [Compound] (M) -11.9208,2.802
same,GoB hCB1,hCB1; Log [Compound] (M) -11.9208,0.3312
same,Gi1 hCB1,hCB1; Log [Compound] (M) -12.3979,0.1044
same,GoB hCB1,hCB1; Log [Compound] (M) -12.3979,-0.9456
same,Gi1 hCB1,hCB1; Log [Compound] (M) -12.8861,-0.6818
same,GoB hCB1,hCB1; Log [Compound] (M) -12.8861,1.626
same,Gi1 hCB1,hCB1; Log [Compound] (M) -13,2.001 and 0.07361
same,GoB hCB1,hCB1; Log [Compound] (M) -13,1.176 and -0.1363
same,pKi [95% CI],CB1 (rCB1); rCB1,6.1 [5.8 – 6.3]
same,Ki,"CB1 (rCB1); read-out: Ki [95% CI], rCB1, [3H]-CP-55,940",0.85 µM
